From patent publication US10144758B2, “Deuterated bile acids” (Metselex, Inc., priority 2013, dated 2018) come the findings set out here.

Data set [1] deals with primary rat hepatocytes. The data set can be described thus: Cytotoxicity of compound alone (ApoTox-Glo Triplex / LDH Cytotoxicity Detection Kit). Format: cell-based. How it is done: Primary rat hepatocytes were isolated from male rats (100-150 grams) by collagenase perfusion (as described by Solá S, et al., 2003, Journal of Biological Chemistry 278: 48831-48838)). Briefly, rats were anesthetized with phenobarbital sodium (100 mg/kg body weight) injected into the peritoneal cavity. After administration of heparin (200 units/kg body weight) in the tail vein, the animal's abdomen was opened and the portal vein exposed and cannulated. The liver was then perfused at 37° C. in situ with a calcium-free Hanks' Balanced Salt Solution (HBSS) for about 10 minutes, and then with 0.05% collagenase type IV in calcium-present HBSS for another 10 minutes. Hepatocyte suspensions were obtained by passing collagenase-digested livers through 125 μm gauze and washing cells in Complete William's E medium (William's E medium, Sigma-Aldrich Corp., St Louis, Mo., USA) supplemented with 26 mM sodium bicarbonate, 23 mM HEPES, 0.01 units/mL insulin, 2 mM L-glutamine, 10 nM dexamethasone, 100 units/mL penicillin, and 10% heat-inactivated fetal bovine serum (Invitrogen Corp., Carlsbad, Calif., USA). Viable primary rat hepatocytes were enriched by low-speed centrifugation at 200 g for 3 minutes. Cell viability was determined by trypan blue exclusion and was typically 80-85%. After isolation, hepatocytes were resuspended in Complete William's E medium and plated on Primaria™ tissue culture dishes (BD Biosciences, San Jose, Calif., USA) at 5×10^4 cells/cm^2. Cells were maintained at 37° C. in a humidified atmosphere of 5% CO2 for 6 hours to allow attachment. Plates were then washed with medium to remove dead cells and incubated in Complete William's E medium supplemented with either 100-400 μM UDCA (Sigma-Aldrich Corp.), 100-400 μM deuterated UDCA (compound 5), or no addition (control). Eight hours after pre-incubation, cells were exposed to 1 nM recombinant human TGF-β1 (R&D Systems Inc., Minneapolis, Minn., USA) for 36 hours, or to 50 or 100 μM DCA for 16 hours before processing for cell viability, cytotoxicity and apoptosis assays.
The ApoTox-Glo™ Triplex Assay (Promega Corp., Madison, Wis., USA) was used to evaluate cell viability, cytotoxicity and caspase-3/7 activity, according to the manufacturer's protocol, using a GloMax+ Multi Detection System (Promega Corp.). General cell death was also evaluated using the lactate dehydrogenase (LDH) Cytotoxicity Detection Kit^PLUS (Roche Diagnostics GmbH, Mannheim, Germany), following the manufacturer's instructions.

Data set [2] has as its system primary rat hepatocytes. The data set can be described thus: DCA-induced caspase-3/7 activity (ApoTox-Glo Triplex). It counts as cell-based. To be noted: 50 and 100 μM DCA; pretreatment; FIG. 7B. How it is done:
Primary rat hepatocytes were isolated from male rats (100-150 grams) by collagenase perfusion (as described by Solá S, et al., 2003, Journal of Biological Chemistry 278: 48831-48838)). Briefly, rats were anesthetized with phenobarbital sodium (100 mg/kg body weight) injected into the peritoneal cavity. After administration of heparin (200 units/kg body weight) in the tail vein, the animal's abdomen was opened and the portal vein exposed and cannulated. The liver was then perfused at 37° C. in situ with a calcium-free Hanks' Balanced Salt Solution (HBSS) for about 10 minutes, and then with 0.05% collagenase type IV in calcium-present HBSS for another 10 minutes. […] Cell viability was determined by trypan blue exclusion and was typically 80-85%. […]
The ApoTox-Glo™ Triplex Assay (Promega Corp., Madison, Wis., USA) was used to evaluate cell viability, cytotoxicity and caspase-3/7 activity, according to the manufacturer's protocol, using a GloMax+ Multi Detection System (Promega Corp.). General cell death was also evaluated using the lactate dehydrogenase (LDH) Cytotoxicity Detection Kit^PLUS (Roche Diagnostics GmbH, Mannheim, Germany), following the manufacturer's instructions. […]

On to “7,8-[^2H]-3α,7α-dihydroxy-5β-cholan-24-oic acid/7-[^2H]-3α,7α-dihydroxy-5β-cholan-24-oic acid [Compound 5]”, for which the “cytotoxicity compared with UDCA” value in data set [1] (400 μM, 24 and 44 hours) was “comparable to UDCA cytotoxicity”. Besides, the increase in cytotoxicity in data set [1] (400 μM, 24 hours) was about 2%; in data set [1] (400 μM, 44 hours), about 15%. For the same substance, the signs of cytotoxicity entry in data set [1] (100 and 200 μM) is on record as “no relevant signs of cytotoxicity”. Moreover, the “inhibition of caspase activity” value in data set [2] is recorded as “more effective than UDCA”.
